Experimental findings from PubChem BioAssay AID623861 (Sanford-Burnham Center for Chemical Genomics, 2012) are described below.

Calls of active or inactive are those of the source.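 Rule for the calls: active = compounds whose EC50 for boosting single-cell stem cell survival is at or below a set limit; inactive = the rest.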

For this assay, the system named is human iPSC single-cell survival, ATP luminescence. Kind of assay: enhancers of single-cell hiPSC survival, dose response, luminescence (AID 623861).
As to `CC(C)(C)NC(=O)Cn1nnc(-c2ccccc2NC(=O)c2cnccn2)n1`, the concentration for a half-maximal effect (EC50) was 10.8 µM.
With `CC(C)CCNC(=O)c1onc(CSc2ccc(F)cc2)c1C(=O)NCCC(C)C`, the EC50 was > 80 µM (inactive).
In the case of `CCN1C/C(=C/c2cccc([N+](=O)[O-])c2)C(=O)/C(=C/c2cccc([N+](=O)[O-])c2)C1` it was 9.01 µM; in that of `COc1ccc(CN(C)CCCn2cnc3c(OC)ncnc32)cc1OC`, > 80 µM (inactive).
`CCSc1cnn(-c2ccccc2)c(=O)c1Cl`: the EC50 is > 80 µM (inactive).
In the case of `CC(C)CC1Nc2ncnc(N3CCN(c4ccccc4)CC3)c2N(Cc2ccccc2)C1=O` (stereo not given), the EC50 is > 80 µM (inactive).
Regarding `O=C(Nc1ccncc1)c1c(F)cccc1F`, the 50% effective concentration (EC50) is 3.27 µM.
`C=C1C(C)C2C(Cc3ccccc3)NC(=O)C23C(OC(C)=O)C=CC(C)(O)CC(C)CC=CC3C1O` (stereo not given): the EC50 was 0.448 µM.
Take `Cc1ccsc1C(=O)OCC(=O)Nc1sccc1C(N)=O`: the EC50 is > 80 µM (inactive).
In the case of `Cc1cc(C)c2nc(N3CCN(C)CC3)c(C#N)cc2c1`, the EC50 is > 80 µM (inactive).
Take `O=C1NCCN1c1ccccc1`: the EC50 was > 80 µM (inactive).
Take `CC(=O)c1ccccc1NC(=O)COC(=O)CCCN1C(=O)c2cccc3cccc(c23)C1=O`: the EC50 is > 80 µM (inactive).
In the case of `CCCc1nc(SCC(=O)Nc2nc3c(s2)CCCC3)c2ccccc2n1` it was > 80 µM (inactive); in that of `C=C1[C@@H](C)[C@H]2[C@H](Cc3ccccc3)NC(=O)[C@]23OC(=O)/C=C/[C@H](O)CCC[C@@H](C)C/C=C/[C@H]3[C@@H]1O`, 21.7 µM (inactive); in that of `Cc1c(Nc2cc(Cl)c3nonc3c2[N+](=O)[O-])c(=O)n(-c2ccccc2)n1C`, > 80 µM (inactive).
Take `OC(c1ccc(Cl)cc1)c1ncc(-c2cccc(C(F)(F)F)c2)[nH]1` (stereo not given): the EC50 is > 80 µM (inactive).
For the molecule `C[C@@H]1CCCCO[C@@H](CN(C)S(=O)(=O)c2cccs2)[C@@H](C)CN([C@H](C)CO)C(=O)c2cc(NS(=O)(=O)c3ccccc3)ccc2O1`, the EC50 is > 80 µM (inactive).
In the case of `Cc1ccc(CCN2CC(C(=O)NCCCN3CCCCCC3)CC2=O)cc1` (stereo not given) it was > 80 µM (inactive); in that of `COC(=O)CCSc1cc([N+](=O)[O-])cc2c1c(C1OCCS1)nn2-c1ccccc1` (stereo not given), 42.7 µM (inactive).
For `COc1ccc(OC)c(NC(=O)C(CC(C)C)NC(=O)C2CCCCC2)c1` (stereo not given), the EC50 is > 80 µM (inactive).
With `CC(OC(=O)c1cccc(S(=O)(=O)N2CCN(C)CC2)c1)C(=O)Nc1ccc(C(N)=O)cc1` (stereo not given), the EC50 is 30.6 µM (inactive).
In the case of `CN(C)c1ccc(-c2ccnc3c2CC(C)(C(=O)Nc2ccc(Cl)c(C(F)(F)F)c2)O3)cc1` (stereo not given), the EC50 is > 80 µM (inactive).
For the molecule `O=C(Nc1ccncc1)c1cc(S(=O)(=O)N2CCCC2)ccc1Cl`, the EC50 is 20.5 µM (inactive).
In the case of `NC(=O)c1ccc(NC(=O)CCC(=O)c2cccs2)cc1` it was 9.86 µM; in that of `C=C(C)[C@@]12OC3(c4ccccc4)O[C@@H]1C1[C@@H]4O[C@]4(CO)[C@@H](O)[C@]4(O)C(=O)C(C)=C[C@H]4[C@@]1(O3)[C@H](C)[C@H]2OC(=O)/C=C/C=C/c1ccccc1` (stereo not given in full), less than 0.156 µM.
As to `COc1ccc(C2=CC(=O)C[C@H](c3ccc(OC)c(OC)c3)C2)cn1`, the EC50 was > 80 µM (inactive).
Regarding `Cc1ccc2c(COC(=O)C3=COCCO3)cc(=O)oc2c1`, the EC50 was > 80 µM (inactive).
For `CC(Oc1ccccc1)C(=O)Nc1nc(-c2ccncc2)cs1` (stereo not given), the EC50 was 37.8 µM (inactive).
In the case of `CCCOC(=O)C1NC(=O)N2C(C(=O)OCCC)C(C)(C)S[C@H]12` (stereo not given in full), the EC50 was > 80 µM (inactive).
As to `COc1ccc(CC(=O)N2N=C(c3ccncc3)CC2(O)C(F)(F)F)cc1` (stereo not given), the EC50 is > 80 µM (inactive).
Take `O=S(=O)(c1cccc2cnccc12)N1CCNCC1`: the EC50 was 2.89 µM.
As to `CCOC(=O)C(=O)/C(=C\N(C)C)c1onc(-c2c(F)cccc2Cl)c1C(=O)OC`, the EC50 was > 80 µM (inactive).
Consider `O=C(NCCCN1CCCCCC1)c1ccc(CS(=O)(=O)Cc2ccccc2F)o1`, for which the EC50 was > 80 µM (inactive).
Regarding `CC(OC(=O)c1ccc(S(C)(=O)=O)c([N+](=O)[O-])c1)C(=O)NC1C2CC3CC(C2)CC1C3` (stereo not given), the EC50 was > 80 µM (inactive).
As to `CCOC1=C2[C@H](c3ccc(C)cc3)N(S(=O)(=O)c3ccc(C)cc3)C[C@H]2n2c(=O)n(-c3ccccc3)c(=O)n2C1`, the EC50 is > 80 µM (inactive).
On to `O=C(Nc1ccncc1)c1ccccc1F`, for which the EC50 is 41 µM (inactive).
`NC(=O)CC(NC(=O)c1ccccc1)C(=O)O` (stereo not given): the EC50 is > 80 µM (inactive).
In the case of `O=C(Nc1ccc(N2CCOCC2)cc1)c1cccc(S(=O)(=O)N2CCCC2)c1` it was > 80 µM (inactive).
As to `Cc1c(C(=O)OCC(=O)Nc2ccc(C(N)=O)cc2)cccc1[N+](=O)[O-]`, the EC50 was 60.8 µM (inactive).
With `c1ccc(CN2CCN(c3nc(NCc4ccco4)c4ccccc4n3)CC2)cc1`, the EC50 is 1.05 µM.
In the case of `O=C(Cc1ccc(Br)cc1)Nc1ccc2[nH]ncc2c1`, the EC50 is 25.2 µM (inactive).
Regarding `O=C(NCCCN1CCCCCC1)C1CC(=O)N(CCc2ccccc2)C1` (stereo not given), the EC50 was > 80 µM (inactive).
Take `CC1CNCCN1S(=O)(=O)c1cccc2cnccc12` (stereo not given): the EC50 is > 80 µM (inactive).
Consider `COc1ccccc1Sc1nc(-c2ccccn2)ncc1OC`, for which the EC50 was 40.8 µM (inactive).
In the case of `CN1C2CCC1/C(=C/c1ccccn1)C(=O)/C2=C\c1ccccn1`, the half-maximal effective concentration (EC50) is 6.32 µM.
For the molecule `CCCSc1nc(N2CCOCC2)c2c(c1C#N)CC(C)(C)SC2`, the EC50 is 25.6 µM (inactive).
Take `Cc1ccc(C(=O)OCc2cc(=O)n3ccsc3n2)s1`: the EC50 is > 80 µM (inactive).
In the case of `CCN1C/C(=C\c2cccc([N+](=O)[O-])c2)C(=O)/C(=C/c2cccc([N+](=O)[O-])c2)C1`, the EC50 was 20 µM.
`COC(=O)c1[nH]c2ccccc2c1NC(=O)CCN1CCSCC1`: the EC50 was > 80 µM (inactive).
Turning to `Cn1c(Cl)c(/C=N/OC(=O)c2ccc(Cl)cc2)c2ccccc21`, the EC50 is > 80 µM (inactive).
As for `COC(=O)[C@]1(Cc2ccccc2)N[C@H](CN(C)C(=O)Nc2ccccc2)[C@@H]2C(=O)N(C)C(=O)[C@@H]21`, the EC50 was > 80 µM (inactive).
Regarding `COc1cc(CC(CC(=O)O)CC(C)OCc2ccccc2)cc(OC)c1` (stereo not given), the EC50 was > 80 µM (inactive).
`CCOC(=O)c1c(-c2cc(OC)c(OC)c(OC)c2)csc1N`: the EC50 is > 80 µM (inactive).
On to `O=C(NC1CCCCC1)N(Cc1nc2ccccc2c(=O)[nH]1)C1CCCCC1`, for which the EC50 is > 80 µM (inactive).
Take `CCCCn1c(=O)[nH]c(=O)c2c1nc(Cn1ncc(Cl)c(Cl)c1=O)n2CCC`: the half-maximal effective concentration (EC50) is 5.62 µM.
Consider `C=C1C(=O)O[C@@H]2C[C@@H](C)[C@@H]3C=CC(=O)[C@@]3(C)[C@@H](O)[C@H]12`, for which the EC50 was 7.88 µM.
Take `O=C(Nc1nc(-c2ccncc2)cs1)C1COc2ccccc2O1` (stereo not given): the EC50 was 3.19 µM.
Take `O=C(O)c1ccccc1C(=O)NCC(O)COCC1CC=CCC1` (stereo not given): the EC50 is > 80 µM (inactive).
As to `O=C(COc1ccccc1)Nc1nc(-c2ccncc2)cs1`, the EC50 is 15.9 µM.
As for `CN(C)CCN(C(=O)c1ccc2ccccc2c1)c1nc2cc3c(cc2s1)OCO3`, the EC50 was > 80 µM (inactive).
In the case of `CCOCCCNC(=O)/C(C#N)=C/c1ccc([N+](=O)[O-])o1`, the EC50 is 53.1 µM (inactive).
In the case of `C=C1C(=O)OC2CC(C)C3C=CC(=O)C3(C)C(O)C12` (stereo not given) it was 9.47 µM; in that of `CN(CCOc1ccc(-c2ccn(S(=O)(=O)c3c(Cl)cccc3Cl)n2)cc1)c1ccccn1`, > 80 µM (inactive); in that of `O=C(Nc1ccncc1)c1c(F)c(F)c(F)c(F)c1F`, 5.93 µM.
For `O=C1/C(=C/c2ccncc2)CCC/C1=C\c1ccncc1`, the EC50 is 10.1 µM.
Turning to `CN1Cc2cnnn2-c2ccccc2C1C#N` (stereo not given), the EC50 was 25.7 µM (inactive).
In the case of `COc1ccc(N2C(=O)CC(Sc3nccc(C)n3)C2=O)c(OC)c1` (stereo not given) it was > 80 µM (inactive); in that of `CC1CCN(C(=O)c2[nH]cnc2C(=O)NCC(=O)OC(C)(C)C)CC1`, > 80 µM (inactive).
In the case of `O=C(Nc1ccncc1)c1cc(S(=O)(=O)N2CCOCC2)ccc1Cl` it was 20.4 µM (inactive).
For the molecule `CC(OC(=O)c1ccc2c(=O)n3c(nc2c1)CCC3)C(=O)Nc1ccc(C(N)=O)cc1` (stereo not given), the EC50 was 55.6 µM (inactive).
In the case of `Cc1cccc(Cc2c(C)nc3c(C(=O)NCc4ccco4)cnn3c2C)c1` it was > 80 µM (inactive); in that of `O=C(C(O)c1ccc(Br)cc1)N1CCC(Nc2ccc3[nH]ncc3c2)CC1` (stereo not given), 6.68 µM; in that of `COc1ccc2c(c1)c(=O)c(C(=O)c1ccc(Cl)cc1)cn2CC(=O)Nc1ccc(F)cc1`, 15.6 µM.
Consider `Cc1cc(Cl)n2nc(C)c(-c3ccc(Cl)cc3)c2n1`, for which the EC50 is > 80 µM (inactive).
For the molecule `Cc1nnc2n(C3CCCCC3)c(=O)c3c4c(sc3n12)COC(C)(C)C4`, the EC50 is 38.5 µM (inactive).
`NC(=O)c1ccc(Nc2nc(C(N)c3ccccc3Cl)cs2)cc1` (stereo not given): the EC50 is 39.7 µM (inactive).
As to `COC(=O)c1ccc(C(=O)OC)c(NC(=O)CSc2cccc[n+]2[O-])c1`, the EC50 was > 80 µM (inactive).
`CCCCc1cc(=O)oc2cc(OCc3cc(OC)c(OC)c(OC)c3)c(Cl)cc12`: the EC50 was > 80 µM (inactive).
`Cc1ccc(NC(=O)/C(=C\c2ccc([N+](=O)[O-])cc2)NC(=O)c2ccccc2)cc1`: the EC50 was > 80 µM (inactive).
As for `CCS(=O)(=O)c1ncc(Cl)c(C(=O)Nc2ccc(S(=O)(=O)N(C)c3ccccc3)cc2)n1`, the EC50 was > 80 µM (inactive).
In the case of `O=C(O)c1cc(C(=O)C2CC2)c[nH]1`, the EC50 is > 80 µM (inactive).
In the case of `CCOc1ccc(S(=O)(=O)Nc2cccc(C(=O)N3CCN(c4ccc(OC)cc4)CC3)c2)cc1` it was > 80 µM (inactive).
For `Cc1sc(-c2ccccn2)nc1OC(=O)c1ccc(Cl)c(Cl)c1`, the EC50 is > 80 µM (inactive).
In the case of `CNc1cc(Cl)c2nonc2c1[N+](=O)[O-]` it was 12.9 µM.
In the case of `CC1(C)Cc2c(C#N)c(SCC(=O)c3ccccc3)nc(N3CCOCC3)c2CS1` it was 13.4 µM.
